This is an account of results in patent US11883517B2, “External dermal composition and method for beautifying skin” (National Tsing Hua University, priority 2021, dated 2024).

The series concerns EpiDerm™ SIT (EPI-200). Put plainly: Skin irritation test, OECD 439. Conditions: test group 50 μM, positive control 5% solution, average of 3 repeats. How it is done: In the present evaluation, the EpiDerm™ SIT (EPI-200) was used for skin irritation tests following the OECD 439 test guidelines.
In the skin irritation test, the double nitrosyl-iron complex at a concentration of 50 μM was used as the test group, Dulbecco's Phosphate-Buffered Saline (DPBS) was used as the negative control group, and 5% of sodium dodecyl sulfate (SDS) solution was used as a positive control group. The test was repeated 3 times, and the average value was used for evaluation.

The compound `CCCCCCCCCCCCOS(=O)(=O)[O-].[Na+]` [sodium dodecyl sulfate (SDS), sodium dodecyl sulfate] registered a tissue survival rate of 15.11%.
